Target: ABL1 (64-515) (Homo sapiens (Human), UniProt P00519)
Experiment: Radio ABL1 (64-515) assay (radiometric filter-binding)
Type: biochemical

ABL1 (64-515), sequence (P00519 64-515): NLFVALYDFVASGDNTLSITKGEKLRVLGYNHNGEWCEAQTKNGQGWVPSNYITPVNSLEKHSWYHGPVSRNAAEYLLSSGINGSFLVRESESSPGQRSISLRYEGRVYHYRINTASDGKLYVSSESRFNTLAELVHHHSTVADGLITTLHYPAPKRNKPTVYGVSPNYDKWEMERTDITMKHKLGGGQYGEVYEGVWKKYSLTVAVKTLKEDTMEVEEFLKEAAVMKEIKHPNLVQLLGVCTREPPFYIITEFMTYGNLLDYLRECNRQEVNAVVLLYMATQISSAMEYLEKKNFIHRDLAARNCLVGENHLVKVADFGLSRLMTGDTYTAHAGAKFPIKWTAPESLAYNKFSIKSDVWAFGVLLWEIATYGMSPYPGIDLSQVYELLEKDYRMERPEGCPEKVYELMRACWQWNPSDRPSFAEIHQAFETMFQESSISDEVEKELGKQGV

Row | IC50 | Structure (SMILES)
1 | 3 nM | COc1cncc(-c2cc(C(=O)Nc3ccc(OC(F)(F)F)cc3)cnc2N2CC[C@@H](O)C2)c1 [Example 55, (R)-2-(3-hydroxypyrrolidin-1-yl)-5′-methoxy-N-(4-(trifluoromethoxy)phenyl)-[3,3′-bipyridine]-5-carboxamide]
2 | 5 nM | Cc1ccc(-c2cc(C(=O)Nc3ccc(OC(F)(F)F)cc3)cnc2N2CC[C@@H](CN)C2)cn1 [Example 110, (S)-2-(3-(Aminomethyl)pyrrolidin-1-yl)-6′-methyl-N-(4-(trifluoromethoxy)phenyl)-[3,3′-bipyridine]-5-carboxamide]
3 | < 3 nM | CN(C)C1CCN(c2ncc(C(=O)Nc3ccc(OC(F)(F)F)cc3)cc2-c2cncnc2)C1 (centres unmarked) [Example 112, 6-(3-(Dimethylamino)pyrrolidin-1-yl)-5-(pyrimidin-5-yl)-N-(4-(trifluoromethoxy)phenyl)nicotinamide]
4 | < 3 nM | O=C(Nc1ccc(OC(F)(F)F)cc1)c1cnc(N2CC[C@@H](CO)C2)c(-c2cccnc2)c1 [Example 76, (R)-2-(3-(Hydroxymethyl)pyrrolidin-1-yl)-N-(4-(trifluoromethoxy)phenyl)-[3,3′-bipyridine]-5-carboxamide]
5 | < 3 nM | O=C(Nc1ccc(OC(F)(F)F)cc1)c1cnc(N2CC[C@H](CO)C2)c(-c2cccnc2)c1 [Example 81, (S)-2-(3-(Hydroxymethyl)pyrrolidin-1-yl)-N-(4-(trifluoromethoxy)phenyl)-[3,3′-bipyridine]-5-carboxamide]
6 | < 3 nM | N[C@H]1CCN(c2ncc(C(=O)Nc3ccc(OC(F)(F)F)cc3)cc2-c2cccnc2)C1 [Example 97, (S)-2-(3-Aminopyrrolidin-1-yl)-N-(4-(trifluoromethoxy)phenyl)-[3,3′-bipyridine]-5-carboxamide]
7 | < 3 nM | CN[C@@H]1CCN(c2ncc(C(=O)Nc3ccc(OC(F)(F)F)cc3)cc2-c2ccc(C)nc2)C1 [Example 101, (R)-6′-Methyl-2-(3-(methylamino)pyrrolidin-1-yl)-N-(4-(trifluoromethoxy)phenyl)-[3,3′-bipyridine]-5-carboxamide]
8 | < 3 nM | Cc1ccc(-c2cc(C(=O)Nc3ccc(OC(F)(F)F)cc3)cnc2N2CCC(O)C2)cn1 (centres unmarked) [Example 30, 2-(3-Hydroxypyrrolidin-1-yl)-6′-methyl-N-(4-(trifluoromethoxy)phenyl)-[3,3′-bipyridine]-5-carboxamide]
9 | < 3 nM | CC(=O)NC1CCCN(c2ncc(C(=O)Nc3ccc(OC(F)(F)F)cc3)cc2-c2cncnc2)C1 (centres unmarked) [Example 20]
10 | < 3 nM | Cc1ccc(-c2cc(C(=O)Nc3ccc(OC(F)(F)F)cc3)cnc2N2CC[C@@H](N)C2)cn1 [Example 95, (R)-2-(3-Aminopyrrolidin-1-yl)-6′-methyl-N-(4-(trifluoromethoxy)phenyl)-[3,3′-bipyridine]-5-carboxamide]
11 | 7 nM | O=C(Nc1ccc(OC(F)(F)F)cc1)c1cnc(N2CCC(O)C2)c(-c2ccncc2)c1 (centres unmarked) [Example 31, 2-(3-Hydroxypyrrolidin-1-yl)-N-(4-(trifluoromethoxy)phenyl)-[3,4′-bipyridine]-5-carboxamide]
12 | < 3 nM | NC[C@H]1CCN(c2ncc(C(=O)Nc3ccc(OC(F)(F)F)cc3)cc2-c2cccnc2)C1 [Example 106, (R)-2-(3-(Aminomethyl)pyrrolidin-1-yl)-N-(4-(trifluoromethoxy)phenyl)-[3,3′-bipyridine]-5-carboxamide]
13 | < 3 nM | O=C(Nc1ccc(OC(F)(F)F)cc1)c1cnc(N2CCC(O)C2)c(-c2cccnc2)c1 (centres unmarked) [Example 29, 2-(3-Hydroxypyrrolidin-1-yl)-N-(4-(trifluoromethoxy)phenyl)-[3,3′-bipyridine]-5-carboxamide]
14 | < 3 nM | CC(=O)NC1CCN(c2ncc(C(=O)Nc3ccc(OC(F)(F)F)cc3)cc2-c2cncnc2)C1 (centres unmarked) [Example 15]
15 | < 3 nM | CN[C@H]1CCN(c2ncc(C(=O)Nc3ccc(OC(F)(F)F)cc3)cc2-c2cccnc2)C1 [Example 103, (S)-2-(3-(Methylamino)pyrrolidin-1-yl)-N-(4-(trifluoromethoxy)phenyl)-[3,3′-bipyridine]-5-carboxamide]
16 | < 3 nM | CN1CCCN(c2ncc(C(=O)Nc3ccc(OC(F)(F)F)cc3)cc2-c2cccnc2)CC1 [Example 146, 2-(4-Methyl-1,4-diazepan-1-yl)-N-(4-(trifluoromethoxy)phenyl)-[3,3′-bipyridine]-5-carboxamide]

Further lines, the compound ahead of its results:

Row | Structure (SMILES) | IC50
17 | O=C(Nc1ccc(OC(F)(F)F)cc1)c1cnc(NCCO)c(-c2cccnc2)c1 [Example 159, 2-((2-Hydroxyethyl)amino)-N-(4-(trifluoromethoxy)phenyl)-[3,3′-bipyridine]-5-carboxamide] | < 3 nM
18 | O=C(Nc1ccc(OC(F)(F)F)cc1)c1cnc(N2CC[C@@H](O)C2)c(-c2cccc(CO)c2)c1 [Example 59, (R)-5-(3-(Hydroxymethyl)phenyl)-6-(3-hydroxypyrrolidin-1-yl)-N-(4-(trifluoromethoxy)phenyl)nicotinamide] | 6 nM
19 | CCc1ccc(-c2cc(C(=O)Nc3ccc(OC(F)(F)F)cc3)cnc2N2CC[C@H](CO)C2)cn1 [Example 83, (S)-6′-Ethyl-2-(3-(hydroxymethyl)pyrrolidin-1-yl)-N-(4-(trifluoromethoxy)phenyl)-[3,3′-bipyridine]-5-carboxamide] | 11 nM
20 | COc1ncc(-c2cc(C(=O)Nc3ccc(OC(F)(F)F)cc3)cnc2N2CCC(O)C2)cn1 (centres unmarked) [Example 28, 6-(3-Hydroxypyrrolidin-1-yl)-5-(2-methoxypyrimidin-5-yl)-N-(4-(trifluoromethoxy)phenyl)nicotinamide] | < 3 nM
21 | CC1(O)CN(c2ncc(C(=O)Nc3ccc(OC(F)(F)F)cc3)cc2-c2cnc(Cl)c(F)c2)C1 [Example 134, 6′-Chloro-5′-fluoro-2-(3-hydroxy-3-methylazetidin-1-yl)-N-(4-(trifluoromethoxy)phenyl)-[3,3′-bipyridine]-5-carboxamide] | 10 nM
22 | CC1(O)CCN(c2ccc(C(=O)Nc3ccc(OC(F)(F)F)cc3)cc2-c2cncnc2)C1 (centres unmarked) [Example 11, 4-(3-Hydroxy-3-methylpyrrolidin-1-yl)-3-(pyrimidin-5-yl)-N-(4-(trifluoromethoxy)phenyl)benzamide] | < 3 nM
23 | Cc1ncc(-c2cc(C(=O)Nc3ccc(OC(F)(F)F)cc3)cnc2N2CC[C@@H](O)C2)cn1 [Example 36, (R)-6-(3-Hydroxypyrrolidin-1-yl)-5-(2-methylpyrimidin-5-yl)-N-(4-(trifluoromethoxy)phenyl)nicotinamide] | < 3 nM
24 | N#C[C@@H]1CCCN(c2ncc(C(=O)Nc3ccc(OC(F)(F)F)cc3)cc2-c2cncnc2)C1 [Example 23] | < 3 nM
25 | Cc1ccc(-c2cc(C(=O)Nc3ccc(OC(F)(F)F)cc3)cnc2N(C)CCCO)cn1 [Example 167, 2-((3-Hydroxypropyl)(methyl)amino)-6′-methyl-N-(4-(trifluoromethoxy)phenyl)-[3,3′-bipyridine]-5-carboxamide] | 30 nM
26 | O=C(Nc1ccc(OC(F)(F)F)cc1)c1cnc(N2CCCC2)c(-c2cncnc2)c1 [Example 67, 5-(Pyrimidin-5-yl)-6-(pyrrolidin-1-yl)-N-(4-(trifluoromethoxy)phenyl)nicotinamide] | < 3 nM
27 | Cc1ccc(-c2cc(C(=O)Nc3ccc(OC(F)(F)F)cc3)cnc2NCCO)cn1 [Example 160, 2-((2-Hydroxyethyl)amino)-6′-methyl-N-(4-(trifluoromethoxy)phenyl)-[3,3′-bipyridine]-5-carboxamide] | < 3 nM
28 | Cc1ccc(-c2cc(C(=O)Nc3ccc(OC(F)(F)F)cc3)cnc2N(C)CCO)cn1 [Example 153, 2-((2-Hydroxyethyl)(methyl)amino)-6′-methyl-N-(4-(trifluoromethoxy)phenyl)-[3,3′-bipyridine]-5-carboxamide] | < 3 nM
29 | N#C[C@H]1CCCN(c2ncc(C(=O)Nc3ccc(OC(F)(F)F)cc3)cc2-c2cncnc2)C1 [Example 24] | < 3 nM
30 | N#Cc1ccc(-c2cc(C(=O)Nc3ccc(OC(F)(F)F)cc3)cnc2N2CC[C@H](CO)C2)cn1 [Example 91, (S)-6′-Cyano-2-(3-(hydroxymethyl)pyrrolidin-1-yl)-N-(4-(trifluoromethoxy)phenyl)-[3,3′-bipyridine]-5-carboxamide] | 5 nM
31 | Cc1ccc(-c2cc(C(=O)Nc3ccc(OC(F)(F)F)cc3)cnc2N2CCCN(C)CC2)cn1 [Example 147, 6′-Methyl-2-(4-methyl-1,4-diazepan-1-yl)-N-(4-(trifluoromethoxy)phenyl)-[3,3′-bipyridine]-5-carboxamide] | < 3 nM
32 | O=C(Nc1ccc(OC(F)(F)F)cc1)c1cnc(N2CCC(O)CC2)c(-c2cncnc2)c1 [Example 22] | < 3 nM
33 | Cc1ncc(-c2cc(C(=O)Nc3ccc(OC(F)(F)F)cc3)ccc2N2CC[C@@H](O)C2)cn1 [Example 3, (R)-4-(3-Hydroxypyrrolidin-1-yl)-3-(2-methylpyrimidin-5-yl)-N-(4-(trifluoromethoxy)phenyl)benzamide] | < 3 nM
34 | CN1CC2CN(c3ncc(C(=O)Nc4ccc(OC(F)(F)F)cc4)cc3-c3cncnc3)CC2C1 (centres unmarked) [Example 16] | < 3 nM
35 | O=C(Nc1ccc(OC(F)(F)F)cc1)c1cnc(N2CC[C@@H](O)C2)c(-c2cncc(C(F)(F)F)c2)c1 [Example 234, (R)-2-(3-Hydroxypyrrolidin-1-yl)-N-(4-(trifluoromethoxy)phenyl)-5′-(trifluoromethyl)-[3,3′-bipyridine]-5-carboxamide] | 19 nM
36 | O=C(Nc1ccc(OC(F)(F)F)cc1)c1cnc(N2CC[C@@H](O)C2)c(-c2ccc3nccnc3c2)c1 [Example 64, (R)-6-(3-Hydroxypyrrolidin-1-yl)-5-(quinoxalin-6-yl)-N-(4-(trifluoromethoxy)phenyl)nicotinamide] | < 3 nM
37 | COc1ccc(-c2cc(C(=O)Nc3ccc(OC(F)(F)F)cc3)cnc2N2CC[C@@H](CN)C2)cn1 [Example 111, (S)-2-(3-(Aminomethyl)pyrrolidin-1-yl)-6′-methoxy-N-(4-(trifluoromethoxy)phenyl)-[3,3′-bipyridine]-5-carboxamide] | < 3 nM
38 | O=C(Nc1ccc(OC(F)(F)F)cc1)c1cnc(N2CCC(O)C2)c(-c2ccc(C(F)(F)F)nc2)c1 (centres unmarked) [Example 32, 2-(3-Hydroxypyrrolidin-1-yl)-N-(4-(trifluoromethoxy)phenyl)-6′-(trifluoromethyl)-[3,3′-bipyridine]-5-carboxamide] | < 3 nM
